Experimental data reported in patent EP0185020B1, “NI[…] PREPARATION THEREOF AND UTILIZATION THEREOF IN ANTICANCEROUS CHEMIOTHERAPY” (CENTRE NATIONAL DE LA RECHERCHE SCIENTIFIQUE (CNRS), priority 1984, dated 1985).
Read-outs that look alike come from different tables or passages of the source.

How the values were obtained:
[1] = system: Adénocarcinome mammaire TM2 (implanté en sous-cutané); set-up: key: N.S.: Non significatif; ∞: 50% en plus des animaux traités sont guéris; conditions: jours 1,5,9, cited from earlier work
[2] = system: Mélano-carcinome B 16 (implanté en sous-cutané); set-up: key: N.S.: Non significatif; ∞: 50% en plus des animaux traités sont guéris; conditions: Mélano-carcinome B 16 s.c., jours 1,5,9, cited from earlier work
[3] = system: Carcinome pulmonaire de Lewis (implanté en sous-cutané); set-up: key: N.S.: Non significatif; ∞: 50% en plus des animaux traités sont guéris; conditions: jours 1,5,9, cited from earlier work
[4] = system: Fibrosarcome I.C.I.G. C1 (implanté en sous-cutané); set-up: key: N.S.: Non significatif; ∞: 50% en plus des animaux traités sont guéris; conditions: jours 1,5,9, cited from earlier work
[5] = system: Leucémie L 1210 (greffée par voie i.c.); set-up: key: N.S.: Non significatif; ∞: 50% en plus des animaux traités sont guéris; conditions: Leucémie L 1210 i.c., jours 1,5,9, cited from earlier work
[6] = system: Carcinome du côlon (côlon 26) (implanté en sous-cutané); set-up: key: N.S.: Non significatif; ∞: 50% en plus des animaux traités sont guéris; conditions: Carcinome du côlon (côlon 26) s.c., jours 1,5,9, cited from earlier work
[7] = system: Gliome 26 (implanté en sous-cutané); set-up: key: N.S.: Non significatif; ∞: 50% en plus des animaux traités sont guéris; conditions: Gliome 26 s.c., jours 1,5,9, cited from earlier work
[8] = system: M 555 ovarienne (implanté en sous-cutané); set-up: key: N.S.: Non significatif; ∞: 50% en plus des animaux traités sont guéris; conditions: M 555 ovarienne s.c., jours 1,5,9, cited from earlier work
[9] = system: leucémie L 1210 greffée i.p.; assay: Antitumour activity on L1210 leukaemia grafted i.p. in mice, mixtures A1 A2 and B1 B2 (INSERM Unit 71, Example 12); type: in vivo, souris B6D2F1/IFFA CREDO; conditions: J1, J5, J9
Text: Au jour J: 0, des souris mâles B6D2F1 âgées de trois mois reçoivent par voie intrapéritonéale 10^5 cellules de la souche leucémique L 1210. Les animaux sont répartis en lots de 8 à 10 animaux pour les groupes témoins et de 6 à 8 animaux pour les groupes traités. Aux jours J : 1, J : 5, J : 9, les animaux reçoivent par voie intrapéritonéale ou intraveineuse le traitement à différentes doses. La CNCC est administrée en suspension dans l'huile d'olive. Les produits selon l'invention sont administrés dans du sérum physiologique. La mortalité est enregistrée tous les jours. La médiane de survie des animaux traités et des animaux témoins a été déterminée. Les résultats sont considérés comme positifs lorsque l'index I = [formula] est supérieur à 125.
La valeur ∞ signifie que 50 à 100% des animaux sont survivants au jour J : 90.
L'activité cytostatique sur la leucémie L 1210 des produits selon l'invention a été évaluée chez des souris B6D2F1/IFFA CREDO d'après le protocole précédemment décrit.
Ont été administrés par voie intrapéritonéale (i.p.) soit le mélange A, A2 dans les proportions suivantes A, (70%) et A2 (30%), soit le mélange B, B2 dans les mêmes proportions, soit la CNCC aux doses suivantes: 10 mg/kg, 20 mg/kg, 30 mg/kg, 40 mg/kg et 50 mg/kg. Les résultats sont présentés sur le tableau Il et appellent les commentaires suivants: • - très bonne efficacité du mélange A, A2 aux doses de 20 mg/kg, 30 mg/kg et 40 mg/kg et du mélange B, B2 aux doses de 20 mg/kg, 30 mg/kg, 40 mg/kg et 50 mg/kg. […] De plus, le nombre de survivants à 90 jours est plus grand chez les animaux ayant reçu les produits selon l'invention par rapport aux animaux ayant reçu la CNCC. […]

[10] = Solubility in solvents allowing intravenous administration; type: physicochemical; conditions: solvants autorisant l'administration par voie intraveineuse
Text: Ont été administrés par voie intraveineuse (i.v.) dans la veine caudale, les mélanges A, A2 et B, B2 dans les proportions et aux doses utilisées dans a). La comparaison avec la CNCC pour cette voie d'administration est impossible en raison de l'insolubilité de ce composé dans les solvants autorisant l'administration par voie intraveineuse. Les résultats sont présentés sur le tableau III.

## CC1(C)O[C@@H]2[C@@H](COC(=O)c3ccc([N+](=O)[O-])cc3)OC(NC(=O)N(CCCl)N=O)[C@@H]2O1 (stereo partly shown) [RFCNU]
[1]; 20 mg/kg I.P.
  Augmentation de la durée de survie (I.L.S.: T/C×100): N.S.
[2]; 20 mg/kg I.P.
  Augmentation de la durée de survie (I.L.S.: T/C×100): 144
[3]; 20 mg/kg I.P.
  Augmentation de la durée de survie (I.L.S.: T/C×100): N.S.
[4]; 20 mg/kg I.P.
  Augmentation de la durée de survie (I.L.S.: T/C×100): ∞ (50% en plus des animaux traités sont guéris)
[5]; 20 mg/kg I.P.
  Augmentation de la durée de survie (I.L.S.: T/C×100): 167
[6]; 20 mg/kg I.P.
  Augmentation de la durée de survie (I.L.S.: T/C×100): N.S.
[7]; 20 mg/kg I.P.
  Augmentation de la durée de survie (I.L.S.: T/C×100): N.S.
[8]; 20 mg/kg I.P.
  Augmentation de la durée de survie (I.L.S.: T/C×100): N.S.

## O=NN(CCCl)C(=O)NCCO [HECNU]
[1]; 10 mg/kg I.P.
  Augmentation de la durée de survie (I.L.S.: T/C×100): 165
[2]; 10 mg/kg I.P.
  Augmentation de la durée de survie (I.L.S.: T/C×100): 198
[3]; 10 mg/kg I.P.
  Augmentation de la durée de survie (I.L.S.: T/C×100): ∞ (50% en plus des animaux traités sont guéris)
[4]; 10 mg/kg I.P.
  Augmentation de la durée de survie (I.L.S.: T/C×100): N.S.
[5]; 10 mg/kg I.P.
  Augmentation de la durée de survie (I.L.S.: T/C×100): ∞ (50% en plus des animaux traités sont guéris)
[6]; 10 mg/kg I.P.
  Augmentation de la durée de survie (I.L.S.: T/C×100): ∞ (50% en plus des animaux traités sont guéris)
[7]; 10 mg/kg I.P.
  Augmentation de la durée de survie (I.L.S.: T/C×100): 182
[8]; 10 mg/kg I.P.
  Augmentation de la durée de survie (I.L.S.: T/C×100): 210

## O=NN(CCCl)C(=O)N[C@H]1C(O)O[C@H](CO)[C@@H](O)[C@@H]1O (stereo partly shown) [CHLOROZOTOCINE]
[1]; 15 mg/kg I.P.
  Augmentation de la durée de survie (I.L.S.: T/C×100): N.S.
[2]; 15 mg/kg I.P.
  Augmentation de la durée de survie (I.L.S.: T/C×100): N.S.
[3]; 15 mg/kg I.P.
  Augmentation de la durée de survie (I.L.S.: T/C×100): N.S.
[4]; 15 mg/kg I.P.
  Augmentation de la durée de survie (I.L.S.: T/C×100): ∞ (50% en plus des animaux traités sont guéris)
[5]; 15 mg/kg I.P.
  Augmentation de la durée de survie (I.L.S.: T/C×100): N.S.
[6]; 15 mg/kg I.P.
  Augmentation de la durée de survie (I.L.S.: T/C×100): ∞ (50% en plus des animaux traités sont guéris)
[7]; 15 mg/kg I.P.
  Augmentation de la durée de survie (I.L.S.: T/C×100): N.S.
[8]; 15 mg/kg I.P.
  Augmentation de la durée de survie (I.L.S.: T/C×100): ∞ (50% en plus des animaux traités sont guéris)

## O=NN(CCCl)C(=O)NCCSSCCNC(=O)N(CCCl)N=O [CNCC]
[1]; 30 mg/kg I.P.
  Augmentation de la durée de survie (I.L.S.: T/C×100): 185
[2]; 30 mg/kg I.P.
  Augmentation de la durée de survie (I.L.S.: T/C×100): 200
[3]; 30 mg/kg I.P.
  Augmentation de la durée de survie (I.L.S.: T/C×100): ∞ (50% en plus des animaux traités sont guéris)
[9]; 10 mg/kg
  Nombre de survivants à 90 jours: 0/6
  T/C × 100: 250
[9]; 20 mg/kg
  Nombre de survivants à 90 jours: 6/6
  T/C × 100: ∞ (50 à 100% des animaux survivants à 90 jours)
[9]; 30 mg/kg
  Nombre de survivants à 90 jours: 6/6
  T/C × 100: ∞ (50 à 100% des animaux survivants à 90 jours)
[9]; 40 mg/kg
  Nombre de survivants à 90 jours: 3/6
  T/C × 100: ∞ (50 à 100% des animaux survivants à 90 jours)
[9]; 50 mg/kg
  Nombre de survivants à 90 jours: 0/6
  T/C × 100: 125
[4]; 30 mg/kg I.P.
  Augmentation de la durée de survie (I.L.S.: T/C×100): N.S.
[5]; 30 mg/kg I.P.
  Augmentation de la durée de survie (I.L.S.: T/C×100): ∞ (50% en plus des animaux traités sont guéris)
[6]; 30 mg/kg I.P.
  Augmentation de la durée de survie (I.L.S.: T/C×100): ∞ (50% en plus des animaux traités sont guéris)
[10]
  solubilité, in words: insolubilité
[7]; 30 mg/kg I.P.
  Augmentation de la durée de survie (I.L.S.: T/C×100): 200
[8]; 30 mg/kg I.P.
  Augmentation de la durée de survie (I.L.S.: T/C×100): >254
